# Experimental data from patent US4043993A, “New pentapeptides and methods for their production” (Parke, Davis & Company, priority 1976, dated 1977).
# Where “and” joins values, the source holds several entries; their conditions need not be identical. Equal entries are not always repeated. No end group written: not given here.
# System: LRF (luteinizing hormone release factor) induced luteinizing hormone (LH) release
# Assay: LRF antagonist activity in vitro in rat anterior pituitary cell cultures
# Type: cell-based
# From the text: Pentapeptides of this invention were screened for LRF antagonist activity in vitro using rat anterior pituitary cell cultures as described by Vale et. al. [Endocrinology, 91, 562 (1972)]. The inhibition of LRF (luteinizing hormone release factor) induced luteinizing hormone (LH) release into the culture medium is the endpoint in this in vitro bioassay.
# [1] = Molar Conc. 1×10^-6, LRF Control 2.5×10^-10
# [2] = Molar Conc. 1×10^-7, LRF Control 3.5×10^-10
# [3] = Molar Conc. 2.5×10^-7, LRF Control 3.5×10^-10
# [4] = Molar Conc. 6×10^-7, LRF Control 3.5×10^-10
# [5] = Molar Conc. 6×10^-8, LRF Control 3.5×10^-10
Substance,"LH Value (LRF alone (LRF Control), Molar Conc. 2.5×10^-10) [ng/mL]","LH Value (LRF alone (LRF Control), Molar Conc. 3.5×10^-10)",% LH Release Inhibition [1] [%],LH Value [1] [ng/mL],% LH Release Inhibition [2] [%],LH Value [2] [ng/mL],% LH Release Inhibition [3] [%],LH Value [3] [ng/mL],% LH Release Inhibition [4] [%],LH Value [4] [ng/mL],% LH Release Inhibition [5] [%],LH Value [5] [ng/mL]
"LRF: luteinizing hormone releasing factor, also referred to as luteinizing hormone releasing hormone, or LH-RH; stimulates secretion of luteinizing hormone (QHWSYGLRPG; ends and bridges not checked; UniProt P01148 24-33, looked up) [reference compound]",38.98,33.78 ng/mL and 41.70 ng/mL and 58.17 ng/mL and 42.57 ng/mL,–,–,–,–,–,–,–,–,–,–
N-Benzyloxycarbonyl-D-2-azetidinecarbonyl-N^im -benzyl-L-histidyl-O-benzyl-L-tyrosyl-O-benzyl-L-seryl-D-alanine methyl ester,–,–,102,5.72,53,33.60,78,22.34,89,17.18,29,44.92
